Laboratory results from BindingDB's records for doi:10.1016/j.bmcl.2011.07.110 (Second Military Medical University, 2011).

Molecular target: Acrosin (Homo sapiens, UniProt P10323)
Experiment: Inhibition of human acrosin using N-alpha-benzoyl-DL-arginine para-nitroanilide-HCl as substrate after 3 hrs by spectrophotometry

Sequence of Acrosin (P10323 20-42 limits assumed): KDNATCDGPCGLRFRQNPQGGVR
Sequence of Acrosin (P10323 43-343 limits assumed): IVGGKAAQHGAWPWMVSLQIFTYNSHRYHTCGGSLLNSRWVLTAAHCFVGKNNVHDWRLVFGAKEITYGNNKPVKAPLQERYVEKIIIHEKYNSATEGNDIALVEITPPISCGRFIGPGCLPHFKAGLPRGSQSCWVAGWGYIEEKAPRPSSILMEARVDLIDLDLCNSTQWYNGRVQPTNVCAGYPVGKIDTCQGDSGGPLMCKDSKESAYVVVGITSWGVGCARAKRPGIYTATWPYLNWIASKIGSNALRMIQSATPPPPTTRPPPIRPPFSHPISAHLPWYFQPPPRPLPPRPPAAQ

Row | IC50 [mM] | SMILES
1 | 3.31 | CCOC(=O)c1cc(-c2ccc(NC(=O)c3ccc(CCl)cc3)cc2)n[nH]1
2 | 34.6 | CCOC(=O)c1cc(-c2ccc(NC(=O)c3ccc(C)cc3)cc2)n[nH]1
3 | 2.4 | CCOC(=O)c1cc(-c2ccc(NC(=O)c3ccccc3Br)cc2)n[nH]1
4 | 8 | CCOC(=O)c1cc(-c2ccc(NC(=O)c3ccccc3)cc2)n[nH]1
5 | 3.31 | CCOC(=O)c1cc(-c2ccc(NC(=O)c3ccc(Cl)cc3)cc2)n[nH]1
6 | 17 | CCCC(=O)Nc1ccc(-c2cc(C(=O)OCC)[nH]n2)cc1
7 | 0.11 | CCOC(=O)c1cc(-c2ccc(NC(=O)c3ccccc3Cl)cc2)n[nH]1
8 | 0.8 | CCOC(=O)c1cc(-c2ccc(NC(=O)c3ccc(OC)cc3)cc2)n[nH]1
9 | 3.3 | CCOC(=O)c1cc(-c2ccc(NC(=O)C(CC)c3ccccc3)cc2)n[nH]1 (configuration not stated)

Further lines, the compound ahead of its results:

Row | SMILES | IC50 [mM]
10 | CCOC(=O)c1cc(-c2ccc(NC(=O)CCC(=O)O)cc2)[nH]n1 | 9.25
11 | CCOC(=O)c1cc(-c2ccc(NS(=O)(=O)c3ccc(C)cc3)cc2)[nH]n1 | 0.032
12 | CCOC(=O)c1cc(-c2ccc(NC(=O)CC)cc2)[nH]n1 | 14
13 | CCOC(=O)c1cc(-c2ccc(NC(=O)c3ccc(F)cc3)cc2)[nH]n1 | 2.4
14 | CCOC(=O)c1cc(-c2ccc(NC(=O)CCCC(=O)O)cc2)n[nH]1 | 17.4
15 | CCOC(=O)c1cc(-c2ccc(NC(=O)c3ccc(Cl)cc3Cl)cc2)[nH]n1 | 0.44
16 | CCOC(=O)c1cc(-c2ccc(NC(=O)Cc3ccccc3)cc2)[nH]n1 | 0.47
17 | CCOC(=O)c1cc(-c2ccc(NC(=O)c3c(F)cccc3F)cc2)[nH]n1 | 3.98
18 | CCOC(=O)c1cc(-c2ccc(NC(=O)C(F)(F)F)cc2)[nH]n1 | 7.9
19 | CCCCC(=O)Nc1ccc(-c2cc(C(=O)OCC)n[nH]2)cc1 | 72
20 | CCOC(=O)c1cc(-c2ccc(NC(=O)CCCl)cc2)[nH]n1 | 5.76
21 | CCOC(=O)c1cc(-c2ccc(NC(C)=O)cc2)[nH]n1 | 23
22 | CCOC(=O)c1cc(-c2ccc(NC(=O)c3c(Cl)cccc3Cl)cc2)n[nH]1 | 4.8
